The record followed here is ChEMBL document CHEMBL4145658, “Modulators of the Cystic Fibrosis Transmembrane Conductance Regulator Protein” (ACS Med Chem Lett, 2018).

Holding throughout (type): cell-based
Assay [1] has as its target T1, Cystic fibrosis transmembrane conductance regulator (Homo sapiens, UniProt P13569, F508DEL). Kind of assay: Corrector activity at HRP-fused CFTR F508del mutant (unknown origin) expressed in human CFBE41o cells assessed as increase in matured protein levels at cell surface after 18 to 24 hrs by luminescence assay.
For assay [2], the system named is Cystic fibrosis transmembrane conductance regulator (Homo sapiens), P13569 [F508del]. Briefly: Corrector activity at HRP-fused CFTR F508del mutant (unknown origin) expressed in human CFBE41o cells assessed as increase in matured protein levels at cell surface at 20 uM after 18 to 24 hrs by luminescence assay relative to 3-[(2R,4R)-4-({[l-(2,2-difluoro-l,3-benzodioxol-5-yl)cyclopropyl]carbonyl}amino)-7-methoxy-3,4-dihydro-2H-chromen-2-yl]benzoic acid.

Assay [3] has as its target T1, Cystic fibrosis transmembrane conductance regulator. Briefly: Corrector activity at HRP-fused CFTR F508del mutant (unknown origin) expressed in human CFBE41o cells assessed as increase in matured protein levels at cell surface after 18 to 24 hrs in presence of co-corrector 3-[(2R,4R)-4-({[l-(2,2-difluoro-l,3-benzodioxol-5-yl)cyclopropyl]carbonyl}amino)-7-methoxy-3,4-dihydro-2H-chromen-2-yl]benzoic acid by luminescence assay.

Assay [4] deals with Cystic fibrosis transmembrane conductance regulator (Homo sapiens), P13569 [F508del]. Kind of assay: Corrector activity at HRP-fused CFTR F508del mutant (unknown origin) expressed in human CFBE41o cells assessed as increase in matured protein levels at cell surface at 20 uM after 18 to 24 hrs in presence of co-corrector 3-[(2R,4R)-4-({[l-(2,2-difluoro-l,3-benzodioxol-5-yl)cyclopropyl]carbonyl}amino)-7-methoxy-3,4-dihydro-2H-chromen-2-yl]benzoic acid by luminescence assay relative to co-corrector.

Molecules are shown by their SMILES.

T1 sequence (P13569 as listed by the source): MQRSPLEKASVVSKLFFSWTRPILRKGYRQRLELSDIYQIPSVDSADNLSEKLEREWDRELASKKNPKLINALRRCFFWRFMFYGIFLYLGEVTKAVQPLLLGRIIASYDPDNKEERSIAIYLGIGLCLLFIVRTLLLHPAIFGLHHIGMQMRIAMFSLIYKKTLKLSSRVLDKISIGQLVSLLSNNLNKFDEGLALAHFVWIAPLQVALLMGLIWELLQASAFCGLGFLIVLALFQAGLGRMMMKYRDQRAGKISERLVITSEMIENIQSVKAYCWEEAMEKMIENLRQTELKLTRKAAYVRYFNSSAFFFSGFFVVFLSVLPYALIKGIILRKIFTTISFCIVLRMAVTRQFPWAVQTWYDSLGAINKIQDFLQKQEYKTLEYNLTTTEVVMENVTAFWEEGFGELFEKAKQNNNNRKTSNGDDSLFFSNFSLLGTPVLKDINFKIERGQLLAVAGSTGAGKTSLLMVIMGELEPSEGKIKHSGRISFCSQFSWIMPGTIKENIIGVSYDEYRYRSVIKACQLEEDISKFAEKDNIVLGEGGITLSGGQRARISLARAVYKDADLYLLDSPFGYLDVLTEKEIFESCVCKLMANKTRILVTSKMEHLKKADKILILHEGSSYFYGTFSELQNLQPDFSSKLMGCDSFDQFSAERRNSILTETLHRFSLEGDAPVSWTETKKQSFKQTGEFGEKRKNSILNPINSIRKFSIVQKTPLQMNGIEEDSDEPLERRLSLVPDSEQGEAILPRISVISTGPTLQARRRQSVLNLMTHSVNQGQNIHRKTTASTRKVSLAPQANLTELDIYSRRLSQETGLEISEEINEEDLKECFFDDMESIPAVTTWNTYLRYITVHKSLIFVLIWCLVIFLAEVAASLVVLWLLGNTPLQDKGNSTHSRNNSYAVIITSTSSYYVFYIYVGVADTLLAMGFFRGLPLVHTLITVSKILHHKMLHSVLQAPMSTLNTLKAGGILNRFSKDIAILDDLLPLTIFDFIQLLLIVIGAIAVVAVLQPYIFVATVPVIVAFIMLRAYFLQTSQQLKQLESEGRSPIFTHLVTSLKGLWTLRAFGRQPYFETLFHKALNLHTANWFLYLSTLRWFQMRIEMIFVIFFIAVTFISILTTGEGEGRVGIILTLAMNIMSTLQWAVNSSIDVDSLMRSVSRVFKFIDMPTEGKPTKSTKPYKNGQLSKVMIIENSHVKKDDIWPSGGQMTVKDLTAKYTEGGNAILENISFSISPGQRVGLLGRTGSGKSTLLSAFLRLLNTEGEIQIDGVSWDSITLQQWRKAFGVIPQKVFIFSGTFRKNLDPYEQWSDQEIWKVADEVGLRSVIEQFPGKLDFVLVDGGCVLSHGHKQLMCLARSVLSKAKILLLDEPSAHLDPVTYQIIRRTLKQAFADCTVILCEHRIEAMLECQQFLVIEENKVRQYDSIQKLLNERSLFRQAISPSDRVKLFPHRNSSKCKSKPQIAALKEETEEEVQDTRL
Chain of Cystic fibrosis transmembrane conductance regulator (Homo sapiens), P13569 [F508del] (P13569 as listed by the source): as above

In the case of `COc1ccc(C(C)(C)C)cc1CN[C@H]1[C@H](C(C)(C)C)[C@@H](C(=O)O)N(C(=O)[C@@H]2Cc3ccccc3O2)[C@H]1c1ccccc1`, the EC50 in assay [1] and in assay [3] was less than 1000 nM throughout. The results for the %max in assay [2] and in assay [4] were more than 200% and more than 350%, respectively.

Regarding `CC(C)c1ccccc1[C@H]1[C@@H](NCc2cccc3c2OC(C)(C)C3)[C@H](C(C)(C)C)[C@@H](C(=O)O)N1C(=O)[C@@H]1CCCCO1`, the EC50 in assay [1] and in assay [3] was less than 1000 nM throughout. Moreover, the %max in assay [2] is more than 200%; in assay [4] it was more than 350%.

As to `COc1ncc(C2CCC2)cc1CN[C@H]1[C@H](C(C)(C)C)[C@@H](C(=O)O)N(C(=O)C2CCCCC2)[C@H]1c1ccccc1C`, the EC50 in assay [1] and in assay [3] was less than 1000 nM throughout. Besides, the %max was more than 200% in assay [2] and more than 350% in assay [4].

On to `COc1cc2c(cc1CN[C@H]1[C@H](C(C)(C)C)[C@@H](C(=O)O)N(C(=O)C3CCCCC3)[C@H]1c1ccccc1)C(C)(C)CCC2(C)C`, for which the EC50 in assay [1] and in assay [3] was less than 1000 nM in each case. The %max in assay [2] was 100 to 200%; in assay [4], more than 350%.

For the compound `COc1ncc(C(C)C)cc1CN[C@H]1[C@H](C(C)(C)OC)[C@@H](C(=O)O)N(C(=O)C2CCCCC2)[C@H]1c1ccccc1`, the EC50 in assay [1] and in assay [3] was 1000 to 10000 nM in each case. The values for the %max in assay [2] and in assay [4] were more than 200% and more than 350%, respectively.

On to `COc1ccc([Si](C)(C)C)cc1CN[C@H]1[C@H](C(C)(C)C)[C@@H](C(=O)O)N(C(=O)C2CCCCC2)[C@H]1c1ccccc1`, for which the EC50 in assay [1] and in assay [3] was less than 1000 nM throughout. Moreover, the figures for the %max in assay [2] and in assay [4] were more than 200% and more than 350%, respectively.

With `COc1ccc(C(C)(C)C)cc1CN[C@H]1[C@H](C(C)(C)C)[C@@H](C(=O)O)N(C(=O)C2CCCCC2)[C@H]1c1cccnc1N(C)C`, the EC50 in assay [1] and in assay [3] was less than 1000 nM each time. The %max in assay [2] was more than 200%; in assay [4], more than 350%.

Regarding `COc1ccc(-c2cccc(F)c2F)cc1CN[C@H]1[C@H](C(C)(C)C)[C@@H](C(=O)O)N(C(=O)C2CCCCC2)[C@H]1c1ccccc1`, the EC50 in assay [1] and in assay [3] was less than 1000 nM each time. Also, the %max in assay [2] was more than 200%; in assay [4] it was more than 350%.

With `COc1ccc(C2(C)CCC2)cc1CN[C@H]1[C@H](C(C)(C)C)[C@@H](C(=O)O)N(C(=O)[C@@H]2CCCCO2)[C@H]1c1ccccc1C`, the EC50 in assay [1] and in assay [3] was less than 1000 nM throughout. Besides, the %max in assay [2] is more than 200%; in assay [4] it was more than 350%.
